From patent US9012499B2, “Pharmaceutical composition comprising oseltamivir phosphate” (Chugai Seiyaku Kabushiki Kaisha, priority 2006, dated 2015)

Legend:
[1] = Color development of sugars and sugar alcohols mixed with oseltamivir phosphate (Example 1); assay type: physicochemical; settings: nine parts by weight of test sample and one part of oseltamivir phosphate; for Coloring by mixing with sugars and sugar alcohols, rank of color difference ΔE*, 40° C., 75% RH, one month (open): bottle open; for Coloring by mixing with sugars and sugar alcohols, rank of color difference ΔE*, 60° C. for 2 weeks (sealed): sealed bottle
Procedure: Various samples of sugars and sugar alcohols were mixed with oseltamivir phosphate and the color development was confirmed by the following method. Nine parts by weight of a test sample and one part by weight of oseltamivir phosphate were mixed in a mortar, and the mixture was transferred to a No. 1 standard brown glass bottle (volume: 14 ml) and the bottle was tightly sealed by a polyethylene middle stopper and a polypropylene screw cap. The color of the mixture immediately after mixing was measured by a color difference meter. The mixture was kept in the following two conditions: i) 2 weeks in a 60° C. incubator, or ii) one month in a 40° C. incubator at 75% RH while the bottle was open. Thereafter, the color of the mixture was measured. The color difference before and after the storage ΔE*(CIE L*a*b*) was measured. The measurement of color difference was carried out according to JIS Z-8722, based on 0-45° rear spectrophotometric method using a spectrophotometric color difference meter (SE-2000) (Nippon Denshoku Ltd.).
The A, B and C rank in the table represents ΔE*≦2.5, 2.5<ΔE*≦5.0 and ΔE*>5.0, respectively.

[2] = Color change of wet-granulated sugar alcohol/oseltamivir phosphate formulation after storage (Example 2); assay type: physicochemical; settings: 27 g additive + 3 g oseltamivir phosphate, wet granulation with water; 60° C. for 4 weeks under a tight seal
Procedure: Twenty seven grams of a sugar alcohol and 3 g of oseltamivir phosphate were mixed in a mortar, and then kneaded by adding 1 mL of water to carry out the wet granulation. The mixture was dried in a 50° C. constant temperature drying oven for 3 hr to reduce the water content of the formulation to 1% by weight or less. The formulation was kept at 60° C. for 4 weeks under a tight seal and the change of color before and after the storage was measured by a color difference meter.

[3] = Equilibrium water content of sugars and sugar alcohols (DVS-1); assay type: physicochemical; settings: 25° C., relative humidity 70%
Procedure: Sugars and sugar alcohols (excipients) used in the pharmaceutical composition of the present invention have a characteristic that their equilibrium water content is 1% by weight or less at 25° C. and at 70% relative humidity. That is, the equilibrium water content may be obtained by leaving the samples (sugars or sugar alcohols) in the air that has been held in the predetermined condition of 25° C. and 70% relative humidity for a long time, and then by measuring when the water content in the samples become constant.
(1) Method for Measuring Equilibrium Water Content
Equilibrium water content (25° C., relative humidity 70%) of sugars and sugar alcohols can be measured by the method using a DVS-1 (Surface Measurement Systems Ltd.). The condition for measurement is as follows.
Quantity of samples: 50 to 100 mg (intending to scale 75 mg)
Measurement temperature: 25±1° C.
Setting range of relative humidity: 0 to 100% RH
Measurement step of relative humidity: up to 10%
Hold time: If change of the weight is less than 0.02%, the measurement enters next step, but the change is not stable, the step lasts up to 120 min.

[4] = tested on: neuraminidase of influenza virus; settings: Patent Document 1 (WO1998/007685); cited from earlier work

SMILES: OC[C@H]1O[C@H](O[C@H]2[C@H](O)[C@@H](O)C(O)O[C@@H]2CO)[C@H](O)[C@@H](O)[C@@H]1O (mixture of isomers) [Maltose]
- Coloring by mixing with sugars and sugar alcohols, rank of color difference ΔE*, 40° C., 75% RH, one month (open) [1]: C (ΔE*>5.0)
- Coloring by mixing with sugars and sugar alcohols, rank of color difference ΔE*, 60° C. for 2 weeks (sealed) [1]: C (ΔE*>5.0)

SMILES: OC[C@@H](O)[C@@H](O)[C@H](O)[C@H](O)CO [D-Mannitol]
- Coloring by mixing with sugars and sugar alcohols, rank of color difference ΔE*, 40° C., 75% RH, one month (open) [1]: A (ΔE*≦2.5)
- Coloring by mixing with sugars and sugar alcohols, rank of color difference ΔE*, 60° C. for 2 weeks (sealed) [1]: A (ΔE*≦2.5)
- Color difference ΔE* [2]: 3.4

SMILES: OC[C@@H](O)[C@@H](O)[C@H](O)[C@@H](O)CO [D-sorbitol 1, D-sorbitol]
- Color difference ΔE* [2]: 14.6

SMILES: OC[C@@H](O)[C@@H](O)[C@H](O)[C@@H](O)CO [D-sorbitol 2, D-sorbitol]
- Color difference ΔE* [2]: 11.2

SMILES: OC[C@@H](O)[C@@H](O)[C@H](O)[C@@H](O)CO [D-sorbitol]
- Equilibrium water content [3]: 1.7%
- Coloring by mixing with sugars and sugar alcohols, rank of color difference ΔE*, 40° C., 75% RH, one month (open) [1]: C (ΔE*>5.0)
- Coloring by mixing with sugars and sugar alcohols, rank of color difference ΔE*, 60° C. for 2 weeks (sealed) [1]: C (ΔE*>5.0)

SMILES: OC[C@@H](O)[C@@H](O)CO [Erythritol]
- Equilibrium water content [3]: *Equilibrium water content (25° C., relative humidity 70%) is 0.1%, the contents of glucose and mannose as impurities are <0.001% and 0.001%, respectively.
- Equilibrium water content ([3]; listed as erythritol): 0.1%
- Coloring by mixing with sugars and sugar alcohols, rank of color difference ΔE*, 40° C., 75% RH, one month (open) [1]: B (2.5<ΔE*≦5.0)
- Coloring by mixing with sugars and sugar alcohols, rank of color difference ΔE*, 60° C. for 2 weeks (sealed) [1]: A (ΔE*≦2.5)
- Color difference ΔE* [2]: 4.7

SMILES: CCOC(=O)C1=C[C@@H](OC(CC)CC)[C@H](NC(C)=O)[C@@H](N)C1.O=P(O)(O)O [Oseltamivir phosphate, (−)-ethyl (3R,4R,5S)-4-acetamido-5-amino-3-(1-ethylpropoxy)-cyclohex-1-ene-1-carboxylate monophosphate]
- Inhibitory activity against neuraminidase of influenza virus [4]: potent inhibitory activity
- Coloring by mixing with sugars and sugar alcohols, rank of color difference ΔE*, 40° C., 75% RH, one month (open) [1]: A (ΔE*≦2.5)
- Coloring by mixing with sugars and sugar alcohols, rank of color difference ΔE*, 60° C. for 2 weeks (sealed) [1]: A (ΔE*≦2.5)

SMILES: OC[C@H]1O[C@@](CO)(O[C@H]2O[C@H](CO)[C@@H](O)[C@H](O)[C@H]2O)[C@@H](O)[C@@H]1O [Sucrose]
- Coloring by mixing with sugars and sugar alcohols, rank of color difference ΔE*, 40° C., 75% RH, one month (open) [1]: B (2.5<ΔE*≦5.0)
- Coloring by mixing with sugars and sugar alcohols, rank of color difference ΔE*, 60° C. for 2 weeks (sealed) [1]: A (ΔE*≦2.5)

SMILES: OC[C@@H](O)[C@H](O)[C@@H](O)CO [Xylitol]
- Coloring by mixing with sugars and sugar alcohols, rank of color difference ΔE*, 40° C., 75% RH, one month (open) [1]: C (ΔE*>5.0)
- Coloring by mixing with sugars and sugar alcohols, rank of color difference ΔE*, 60° C. for 2 weeks (sealed) [1]: B (2.5<ΔE*≦5.0)
